Source: ChEMBL document CHEMBL1133079, “Synthesis and antibacterial activity of novel 6-O-substituted erythromycin A derivatives” (2000)
≈ marks a conversion by molar mass, not a printed value.

Legend:
Type in all cases: functional
Streptococcus pyogenes [1] = assay: In vitro minimum inhibitory concentration against Streptococcus pyogenes PIU 2548 using standard agar dilution method
Streptococcus pneumoniae [2] = assay: In vitro minimum inhibitory concentration against Streptococcus pneumoniae 5649.
Staphylococcus aureus [3] = assay: In vitro minimum inhibitory concentration against Staphylococcus aureus A5177.
Haemophilus influenzae = assay: In vitro minimum inhibitory concentration against Haemophilus influenzae DILL using standard agar dilution method
Streptococcus pneumoniae [4] = assay: In vitro minimum inhibitory concentration against Streptococcus pneumoniae 5737.
Streptococcus pyogenes [5] = assay: In vitro minimum inhibitory concentration against Streptococcus pyogenes 930 using standard agar dilution method
Streptococcus pneumoniae [6] = assay: In vitro minimum inhibitory concentration against Streptococcus pneumoniae ATCC 6303.
Streptococcus pyogenes [7] = assay: In vitro minimum inhibitory concentration against Streptococcus pyogenes EES61 using standard agar dilution method
Staphylococcus aureus [8] = assay: In vitro minimum inhibitory concentration against Staphylococcus aureus 6538P using standard agar dilution method

| MIC (Streptococcus pyogenes [1]) [µg/mL] | MIC (Streptococcus pneumoniae [2]) [µg/mL] | MIC (Staphylococcus aureus [3]) [µg/mL] | MIC (Haemophilus influenzae) [µg/mL] | MIC (Streptococcus pneumoniae [4]) [µg/mL] | MIC (Streptococcus pyogenes [5]) [µg/mL] | MIC (Streptococcus pneumoniae [6]) [µg/mL] | MIC (Streptococcus pyogenes [7]) [µg/mL] | MIC (Staphylococcus aureus [8]) [µg/mL] | Structure (SMILES) |
| --- | --- | --- | --- | --- | --- | --- | --- | --- | --- |
| 128 (≈ 148 µM) | 64 (≈ 73.8 µM) | 25 (≈ 28.8 µM) | 8 (≈ 9.23 µM) | > 128 | > 128 | 0.25 (≈ 0.288 µM) | 0.125 (≈ 0.144 µM) | 0.78 (≈ 0.9 µM) | CC[C@H]1OC(=O)[C@H](C)[C@@H](O[C@H]2C[C@@](C)(OC)[C@@H](O)[C@H](C)O2)[C@H](C)[C@@H](O[C@@H]2O[C@H](C)C[C@H](N(C)C)[C@H]2O)[C@@](C)(OC/C=N/Nc2ccccn2)C[C@@H](C)C(=O)[C@H](C)[C@@H](O)[C@]1(C)O |
| – | 64 (≈ 71.3 µM) | 6.2 (≈ 6.91 µM) | 8 (≈ 8.92 µM) | > 128 | – | 0.125 (≈ 0.139 µM) | 0.125 (≈ 0.139 µM) | 0.39 (≈ 0.435 µM) | CC[C@H]1OC(=O)[C@H](C)[C@@H](O[C@H]2C[C@@](C)(OC)[C@@H](O)[C@H](C)O2)[C@H](C)[C@@H](O[C@@H]2O[C@H](C)C[C@H](N(C)C)[C@H]2O)[C@@](C)(OCC(O)CNCc2ccccc2)C[C@@H](C)C(=O)[C@H](C)[C@@H](O)[C@]1(C)O (stereo partly specified) |
| 16 (≈ 17.6 µM) | 32 (≈ 35.1 µM) | 6.2 (≈ 6.8 µM) | 4 (≈ 4.39 µM) | 32 (≈ 35.1 µM) | > 64 | 0.008 (≈ 0.00878 µM) | 0.03 (≈ 0.0329 µM) | 0.2 (≈ 0.219 µM) | CC[C@H]1OC(=O)[C@H](C)[C@@H](O[C@H]2C[C@@](C)(OC)[C@@H](O)[C@H](C)O2)[C@H](C)[C@@H](O[C@@H]2O[C@H](C)C[C@H](N(C)C)[C@H]2O)[C@@](C)(OCC(O)CNCCc2ccccc2)C[C@@H](C)C(=O)[C@H](C)[C@@H](O)[C@]1(C)O (stereo partly specified) |
| 8 (≈ 8.89 µM) | 16 (≈ 17.8 µM) | 12.5 (≈ 13.9 µM) | 4 (≈ 4.44 µM) | 8 (≈ 8.89 µM) | 8 (≈ 8.89 µM) | 0.25 (≈ 0.278 µM) | 0.06 (≈ 0.0667 µM) | 0.78 (≈ 0.867 µM) | CC[C@H]1OC(=O)[C@H](C)[C@@H](O[C@H]2C[C@@](C)(OC)[C@@H](O)[C@H](C)O2)[C@H](C)[C@@H](O[C@@H]2O[C@H](C)C[C@H](N(C)C)[C@H]2O)[C@@](C)(OC/C=C/c2cccc3ccccc23)C[C@@H](C)C(=O)[C@H](C)[C@@H](O)[C@]1(C)O |
| 32 (≈ 35.7 µM) | 16 (≈ 17.9 µM) | 3.1 (≈ 3.46 µM) | 4 (≈ 4.47 µM) | > 128 | > 128 | 0.03 (≈ 0.0335 µM) | 0.03 (≈ 0.0335 µM) | 0.05 (≈ 0.0559 µM) | CC[C@H]1OC(=O)[C@H](C)[C@@H](O[C@H]2C[C@@](C)(OC)[C@@H](O)[C@H](C)O2)[C@H](C)[C@@H](O[C@@H]2O[C@H](C)C[C@H](N(C)C)[C@H]2O)[C@@](C)(OCCNCCCc2ccccc2)C[C@@H](C)C(=O)[C@H](C)[C@@H](O)[C@]1(C)O |
| 64 (≈ 79.5 µM) | 32 (≈ 39.8 µM) | 25 (≈ 31.1 µM) | 16 (≈ 19.9 µM) | > 128 | > 128 | 0.125 (≈ 0.155 µM) | 0.125 (≈ 0.155 µM) | 0.78 (≈ 0.969 µM) | CC[C@H]1OC(=O)[C@H](C)[C@@H](O[C@H]2C[C@@](C)(OC)[C@@H](O)[C@H](C)O2)[C@H](C)[C@@H](O[C@@H]2O[C@H](C)C[C@H](N(C)C)[C@H]2O)[C@@](C)(OC/C=N/OC)C[C@@H](C)C(=O)[C@H](C)[C@@H](O)[C@]1(C)O |
| 64 (≈ 82.7 µM) | – | 12.5 (≈ 16.1 µM) | 32 (≈ 41.3 µM) | – | > 128 | – | – | 0.78 (≈ 1.01 µM) | C=CCO[C@@]1(C)C[C@@H](C)C(=O)[C@H](C)[C@@H](O)[C@](C)(O)[C@@H](CC)OC(=O)[C@H](C)[C@@H](O[C@H]2C[C@@](C)(OC)[C@@H](O)[C@H](C)O2)[C@H](C)[C@H]1O[C@@H]1O[C@H](C)C[C@H](N(C)C)[C@H]1O |
| 128 (≈ 162 µM) | – | – | – | – | > 128 | – | – | 3.1 (≈ 3.92 µM) | CC[C@H]1OC(=O)[C@H](C)[C@@H](O[C@H]2C[C@@](C)(OC)[C@@H](O)[C@H](C)O2)[C@H](C)[C@@H](O[C@@H]2O[C@H](C)C[C@H](N(C)C)[C@H]2O)[C@@](C)(OCC(C)=O)C[C@@H](C)C(=O)[C@H](C)[C@@H](O)[C@]1(C)O |
| 32 (≈ 41.4 µM) | 16 (≈ 20.7 µM) | – | 8 (≈ 10.3 µM) | > 128 | > 128 | 0.06 (≈ 0.0776 µM) | 0.03 (≈ 0.0388 µM) | 0.2 (≈ 0.259 µM) | CC[C@H]1OC(=O)[C@H](C)[C@@H](O[C@H]2C[C@@](C)(OC)[C@@H](O)[C@H](C)O2)[C@H](C)[C@@H](O[C@@H]2O[C@H](C)C[C@H](N(C)C)[C@H]2O)[C@@](C)(OCC#N)C[C@@H](C)C(=O)[C@H](C)[C@@H](O)[C@]1(C)O |
| 128 (≈ 159 µM) | 64 (≈ 79.6 µM) | 25 (≈ 31.1 µM) | 8 (≈ 9.95 µM) | > 128 | > 128 | 0.125 (≈ 0.155 µM) | 0.06 (≈ 0.0746 µM) | 0.78 (≈ 0.97 µM) | CC[C@H]1OC(=O)[C@H](C)[C@@H](O[C@H]2C[C@@](C)(OC)[C@@H](O)[C@H](C)O2)[C@H](C)[C@@H](O[C@@H]2O[C@H](C)C[C@H](N(C)C)[C@H]2O)[C@@](C)(OC/C=N/NC)C[C@@H](C)C(=O)[C@H](C)[C@@H](O)[C@]1(C)O |
| 8 (≈ 9.08 µM) | 4 (≈ 4.54 µM) | 12.5 (≈ 14.2 µM) | 2 (≈ 2.27 µM) | 64 (≈ 72.6 µM) | 64 (≈ 72.6 µM) | 0.03 (≈ 0.034 µM) | 0.015 (≈ 0.017 µM) | 0.2 (≈ 0.227 µM) | CC[C@H]1OC(=O)[C@H](C)[C@@H](O[C@H]2C[C@@](C)(OC)[C@@H](O)[C@H](C)O2)[C@H](C)[C@@H](O[C@@H]2O[C@H](C)C[C@H](N(C)C)[C@H]2O)[C@@](C)(OCCNCCc2ccccc2)C[C@@H](C)C(=O)[C@H](C)[C@@H](O)[C@]1(C)O |
